For orientation: share remaining means what is left of the initial amount, in per cent. Higher therefore signals less turnover.

The results in this text go back to PMC10981597 (Amino Acids, 2024).

Data set [1] is classed as physicochemical. The note with it: pH 7.4.
The format of data set [2] is physicochemical. The note with it: pH 6.5.
The conditions of data set [3]: human, serum.

As to `CSCC[C@@H]1NC(=O)[C@H](CC(C)C)NC(=O)[C@H](CCCNC(=N)N)NC(=O)[C@H](CO)NC(=O)[C@@H]2CSSC[C@@H]3NC(=O)[C@H](CO)NC(=O)CNC(=O)[C@H]([C@@H](C)O)NC(=O)[C@H](CSSC[C@H](N)C(=O)N[C@@H](CCCCN)C(=O)NCC(=O)N[C@@H](CCCCN)C(=O)NCC(=O)N[C@@H](C)C(=O)N[C@@H](CCCCN)C(=O)N2)NC(=O)[C@H](CSSC[C@@H](C(N)=O)NC(=O)[C@H](CCCCN)NC(=O)CNC(=O)[C@H](CO)NC(=O)[C@H](CCCNC(=N)N)NC3=O)NC(=O)[C@H](CC(=O)O)NC(=O)[C@H](Cc2ccc(O)cc2)NC1=O` [MVIIA, ω-conotoxin MVIIA, reference compound], the “ANS fluorescence intensity with increasing peptide concentration (self-assembly)” value in data set [1] is on record as “almost no increase in fluorescence intensity”. In addition, the “self-assembled morphology by TEM” value in data set [2] is “oligomers”.
Turning to `CCCCCCCCCCCCCCNCCCC[C@@H]1NC(=O)CNC(=O)[C@H](CCCCNCCCCCCCCCCCCCC)NC(=O)[C@@H](N)CSSC[C@@H]2NC(=O)[C@@H]3CSSC[C@@H](C(N)=O)NC(=O)[C@H](CCCCN)NC(=O)CNC(=O)[C@H](CO)NC(=O)[C@H](CCCNC(=N)N)NC(=O)[C@H](CSSC[C@H](NC(=O)[C@H](CCCCN)NC(=O)[C@H](C)NC(=O)CNC1=O)C(=O)N[C@@H](CO)C(=O)N[C@@H](CCCNC(=N)N)C(=O)N[C@@H](CC(C)C)C(=O)N[C@@H](CCSC)C(=O)N[C@@H](Cc1ccc(O)cc1)C(=O)N[C@@H](CC(=O)O)C(=O)N3)NC(=O)[C@H](CO)NC(=O)CNC(=O)[C@H]([C@@H](C)O)NC2=O` [K2-K4-MVIIA], in data set [1], the “ANS fluorescence intensity with increasing peptide concentration (self-assembly)” value is reported as “significant increase in fluorescence intensity”. The “self-assembled morphology by TEM” value in data set [2] is “nanomicellar structures”. The same molecule returned a fraction remaining at 24 h in data set [3] of 75.6%.
For `CCCCCCCCCCCCCCNCCCC[C@@H]1NC(=O)[C@@H](N)CSSC[C@@H]2NC(=O)[C@@H]3CSSC[C@@H](C(N)=O)NC(=O)[C@H](CCCCN)NC(=O)CNC(=O)[C@H](CO)NC(=O)[C@H](CCCNC(=N)N)NC(=O)[C@H](CSSC[C@H](NC(=O)[C@H](CCCCN)NC(=O)[C@H](C)NC(=O)CNC(=O)[C@H](CCCCN)NC(=O)CNC1=O)C(=O)N[C@@H](CO)C(=O)N[C@@H](CCCNC(=N)N)C(=O)N[C@@H](CC(C)C)C(=O)N[C@@H](CCSC)C(=O)N[C@@H](Cc1ccc(O)cc1)C(=O)N[C@@H](CC(=O)O)C(=O)N3)NC(=O)[C@H](CO)NC(=O)CNC(=O)[C@H]([C@@H](C)O)NC2=O` [K2-MVIIA] the same measures were “significant increase in fluorescence intensity”, “nanomicellar structures” and 78.7%.
